Measured values published in patent US20240011038A1, “CYTARABINE-MODIFIED miRNA FOR TREATING CANCER” (Curamir Therapeutics, Inc., priority 2022, published 2024).

Tests used:
Assay type in all cases: cell-based
[1] = tested on: MV-4-11 acute myeloid leukemia cells; experiment: Cell viability of MV-4-11 AML cells exposed to modified miRNA mimics (WST-1); settings: MV-4-11 cells, vehicle-free transfection, dosage of 5 nM, 6 days; FIG. 3
Protocol: (§1) MV-4-11 (American Type Culture Collection; “ATCC”) AML cells were maintained in Iscove's Modified Dulbecco's Medium (IMDM) (Thermo Fisher Scientific) supplemented with 10% fetal bovine serum (“FBS”; VWR). REH ALL cells (ATCC) were maintained in RPMI-1640 Medium (Thermo Fisher Scientific) supplemented with 10% FBS.
(§2) For transfection with a vehicle, twenty-four hours before transfection, cells were plated in 6 well plates at 1×10^5 cells per well. Cells were transfected with negative control miRNA (Thermo Fisher Scientific), 5-FU miR-15a, or various versions of the ara-C modified miR-15a mimic, using Lipofectamine™ 2000 (Thermo Fisher Scientific) as directed by the manufacturer. MV-4-11 cells were transfected with 15 nM of miRNA and REH cells were transfected with 25 nM of miRNA. Twenty-four hours post-transfection, cells were replated at 2000 cells per well in 96 well plates. […]
(§3) Cell numbers were measured on days 1, 3, and 6 post transfection for cells transfected with Lipofectamine 2000 and on day 6 post transfection for vehicle free transfection, using WST-1 dye (Roche). Briefly, cells were incubated with 10 μl of WST-1 dye per 100 μl of media for 1 hour (REH) or 2 hours (MV-4-11) at 37° C. and absorbance was read at 450 nm and 630 nm. The optical density (“OD”) was calculated by subtracting the absorbance at 630 nm from that at 450 nm. […]

[2] = tested on: Wee1 gene mRNA; experiment: Inhibition of Wee1 expression by modified miR-15a (qRT-PCR); settings: MV-4-11 cells, lipofection, 15 nM miRNA, 24 h post-transfection, normalized to GAPDH, vs negative control miRNA; FIG. 7
Protocol: Wee1 is an important cell cycle regulator and a potential target for AML therapy. Wee1 is a direct target of miR-15a with two miR-15a binding sites in the 3′ UTR of Wee1.
For transfection with a vehicle, twenty-four hours before transfection, cells were plated in 6 well plates at 1×10^5 cells per well. Cells were transfected with negative control miRNA (Thermo Fisher Scientific), 5-FU miR-15a, or various versions of the ara-C modified miR-15a mimic, using Lipofectamine™ 2000 (Thermo Fisher Scientific) as directed by the manufacturer. MV-4-11 cells were transfected with 15 nM of miRNA. Twenty-four hours post-transfection, RNA was isolated from cells using TRIzol™ (Thermo Fisher Scientific) reagent following the manufacturer's protocol. Wee1 expression was measured using qRT-PCR and normalized to GAPDH expression and calculated by the double delta threshold cycle (ΔΔCt) method.

[3] = tested on: REH acute lymphocytic leukemia cells; experiment: Cell viability of REH ALL cells exposed to modified miRNA mimics (WST-1); settings: vehicle-free transfection, 10, 5, 0.5 nM miRNA, day 6, FIG. 5
Protocol: as §1, §2, §3

5-FU miR-15a: miR-15a mimic with 5-fluorouracil in the guide strand, unmodified passenger strand (FIG. 1F; SEQ ID NO: 1/2) (guide UAGCAGCACAUAAUGGUUUGUG; sense CAGGCCAUAUUGUGCUGCCUCA; 5-fluorouracil in guide strand; misc_feature 1..22 miR-15a guide strand; modified_base 1 OTHER; uracil or 5-fluorouracil; misc_feature 4 cytidine or cytosine arabinoside; misc_feature 7 cytidine or cytosine arabinoside; modified_base 11 OTHER; modified_base 14 OTHER; modified_base 17..19 OTHER; modified_base 21 OTHER; misc_fea; misc_feature 1..22 miR-15a passenger strand; misc_feature 1 cytidine or cytosine arabinoside; misc_feature 5..6 cytidine or cytosine arabinoside; misc_feature 15 cytidine or cytosine arabinoside;)
cell killing [1]: killed all cells in 6 days | Wee1 gene mRNA expression (relative quantity, qRT-PCR) [2]: able to significantly suppress Wee1 gene mRNA expression | inhibition of cell viability (percent cell viability) [3]: more effective than ara-C miR-15a
